In PubChem BioAssay AID179 (DTP/NCI, 2004) one finds EC50, IC50 and outcome data, which are given here for 52 compounds.

Active and inactive are the calls of the source.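 How the source made its calls: active means compounds giving half or more protection of infected cells from virus-caused growth loss, again on retest; inactive means the rest.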

This assay relates to CEM cells HIV-1 protection, formazan growth assay. As to the kind of experiment: NCI AIDS Antiviral Assay. The following applies: for IC50: measured here: growth of uninfected CEM cells. The essentials: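 Category rules: moderately active means at least 50% protection on retest, and confirmed active means 100% protection reproducibly. The underlying data came from a formazan growth assay in HIV-1-infected CEM cells.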

Regarding `CC(=O)[C@@H]1[C@@H](OC(=O)CCC(C)COC2OC(CO)C(O)C(O)C2O)C[C@H]2[C@@H]3CC=C4C[C@@H](OC5OC(CO)C(OC6OC(C)C(O)C(O)C6O)C(O)C5OC5OC(C)C(O)C(O)C5O)CC[C@]4(C)[C@H]3CC[C@]12C` (stereo partly drawn), the EC50 is greater than 200 µM and the IC50 was greater than 200 µM.
`COc1ccc(/C=C(\C#N)c2ccc(Cl)cc2)cc1OC`: the EC50 was greater than 200 µM and the half-maximal inhibitory concentration (IC50) was determined as 174 µM.
Take `CC[C@]1(O)C[C@H]2CN(CCc3c([nH]c4ccccc34)[C@@](C(=O)OC)(c3cc4c(cc3OC)N(C)[C@H]3[C@@](O)(C(=O)OC)[C@H](OC(C)=O)[C@]5(CC)C=CCN6CC[C@]43[C@@H]65)C2)C1`: the EC50 is greater than 0.0302 µM and the concentration for half-maximal inhibition (IC50) came to 0.000355 µM.
On to `Clc1ccc(Cl)c(SSc2cc(Cl)ccc2Cl)c1`, for which the result was inactive.
Regarding `O=C1CCC2(c3ccc(F)cc3)Nc3ccc(Cl)cc3N12` (stereo not drawn), the EC50 was greater than 61.7 µM and the IC50 stood at 45.7 µM.
The matching figures for `CC(C)c1nsc2c1C(=O)NC(C(C)(C)C)N2` (stereo not drawn): greater than 269 µM and 209 µM.
On to `O=c1nc2[nH]c3c4cccc5cccc(c3nc2c(=O)[nH]1)c54`, for which the EC50 is greater than 200 µM and the IC50 turned out to be 0.603 µM.
`O=C(CSc1nnc(CSc2ccc(Cl)cc2)n1-c1ccccc1)NC(=O)Nc1ccccc1`: the EC50 is greater than 182 µM and the IC50 turned out to be 115 µM.
Consider `O=C(O)CCCCCCCCCOc1ccccc1`, for which the EC50 is greater than 200 µM and the IC50 was 40.7 µM.
On to `N#Cc1ccsc1Nc1ccccc1[N+](=O)[O-]`, for which the EC50 is 95.5 µM and the IC50 is greater than 200 µM.
As to `Cc1ccc(C)c(NC(=O)CC2Sc3ccccc3NC2=O)c1` (stereo not drawn), the EC50 was greater than 30.2 µM and the 50% inhibitory concentration (IC50) was greater than 30.2 µM.
`COc1cc(Nc2nc3c(N)cc(C(F)(F)F)cc3nc2-c2ccccc2)cc(OC)c1OC`: the EC50 was greater than 15.1 µM and the IC50 was greater than 15.1 µM.
As for `O=C1c2ccsc2C(=O)c2sccc21`, the EC50 was greater than 2 µM and the half-maximal inhibitory concentration (IC50) worked out at 0.309 µM.
Turning to `CCOC(=O)c1cn2c([nH]c3ccccc32)c(C#N)c1=O`, the EC50 was greater than 47.9 µM and the IC50 was greater than 47.9 µM.
On to `CC1(C)C2CCC(C2)C1/C=C1/SC(=S)NC1=O` (stereo not drawn), for which the EC50 is greater than 200 µM and the IC50 was determined as 10 µM.
For `COC(=O)/C(=N\NC(=O)C[N+](C)(C)C)C(C(=O)OC)C(=O)C(=O)Nc1ccccc1C(N)=O` (stereo not drawn), the EC50 was greater than 501 µM and the IC50 is greater than 501 µM.
Take `NC1=C(Br)C(=O)c2ncccc2C1=O`: the outcome was inactive.
As for `COc1cc(C2c3cc(OC)c(OC)c(O)c3C(=O)C3CCC(=O)N32)cc(OC)c1OC` (stereo not drawn), the EC50 was greater than 100 µM and the 50% inhibitory concentration (IC50) was 14.8 µM.
`COC(=O)C1=C(C(=O)OC)N(c2ccncc2)C(c2ccco2)=CC1c1ccccc1[N+](=O)[O-]` (stereo not drawn): the EC50 was greater than 74.1 µM and the half-inhibitory concentration (IC50) came out at 7.24 µM.
On to `CCS(=O)(=O)CCOP(=O)(c1ccccc1)c1ccccc1`, for which the outcome was inactive.
For `Clc1ccc(C[P+](c2ccccc2)(c2ccccc2)c2ccccc2)cc1Cl`, the EC50 was greater than 200 µM and the 50% inhibitory concentration (IC50) came to 3.02 µM.
With `CC1(C)C=C(N2CCN(C3=CC(C)(C)NC(C)(C)C3)CC2)CC(C)(C)N1`, the EC50 was greater than 182 µM and the half-inhibitory concentration (IC50) was greater than 182 µM.
As for `CC1=NN(C(=O)Cc2ccccc2)C(=O)/C1=C\c1ccccc1O`, the EC50 was greater than 22.4 µM and the IC50 is greater than 22.4 µM.
With `NC(=O)C(=O)N/N=C1/c2ccccc2CC1C1(O)C(=O)Nc2c(Cl)cc(Cl)cc21` (stereo not drawn), the EC50 was greater than 12 µM and the half-maximal inhibitory concentration (IC50) is greater than 12 µM.
For the compound `N#CNC(N)=Nc1cc2ccccc2c2ccccc12`, the EC50 is greater than 100 µM and the IC50 amounted to 4.27 µM.
As for `CO[C@H]1[C@H](O)[C@H](O[C@H]2CC[C@@]3(C)[C@H](CC[C@@H]4[C@@H]3CC[C@]3(C)[C@@H](C5=CC(=O)OC5)CC[C@]43O)C2)O[C@@H](C)[C@@H]1O`, the result was inactive.
As to `COC(=O)C(=O)C1CCCC(c2nc3n(c2O)C(=N)N=N3)C1=O` (stereo not drawn), the EC50 was greater than 776 µM and the half-inhibitory concentration (IC50) is greater than 776 µM.
For `Cc1ccc(/C=C2\N=C(N3CCOCC3)NC2=O)cc1`, the EC50 is greater than 200 µM and the concentration for half-maximal inhibition (IC50) is greater than 200 µM.
Regarding `C#CC(O)c1ccc(OC)c(OC)c1` (stereo not drawn), the result was inactive.
On the same count and under the same terms, the result for `COC(=O)Cc1c([C@@]2(C)CCCC(C)(C)C2)ccc2c1C(=O)OC2` reads “inactive”; that for `CCOC(=O)C1CCn2c(nc3c(=O)n(C)c(=O)n(C)c32)S1` (stereo not drawn), “inactive”; that for `CN(/N=C/c1cccc2cccnc12)c1c([N+](=O)[O-])cc([N+](=O)[O-])cc1[N+](=O)[O-]`, “inactive”.
For `COc1ccc(C2C(C(C)=O)=C(C)NC(C)=C2C(C)=O)cc1`, the EC50 is greater than 200 µM and the IC50 is greater than 200 µM.
For `Cc1ccc(SS(=O)(=O)c2ccc(C)cc2)cc1`, the EC50 is greater than 38 µM and the concentration for half-maximal inhibition (IC50) is 6.61 µM.
Consider `FC(F)(F)c1ccc(C2SCc3nc4ccccc4n32)cc1` (stereo not drawn), for which the outcome was inactive.
Take `Cc1c(CCO)c(=O)n2c([nH]c3ccccc32)c1C#N`: the EC50 is greater than 107 µM and the IC50 was 85.1 µM.
For `CC1(CO)COS(=O)OC1` (stereo not drawn) the same measures were greater than 214 µM and greater than 214 µM.
As for `CSc1nc(SC)c(Nc2cccc(C)c2)c(SC)n1`, the EC50 is greater than 200 µM and the half-inhibitory concentration (IC50) is 3.47 µM.
Turning to `CC(O)(C#N)CC(O)(C(F)(F)Cl)C(F)(F)Cl` (stereo not drawn), the EC50 is 195 µM and the IC50 was greater than 200 µM.
For `Cc1ccc(S(=O)(=O)N2CCCN(S(=O)(=O)c3ccc(C)cc3)CCN(S(=O)(=O)c3ccc(C)cc3)CCCSCC2)cc1` the same measures were greater than 5.5 µM and greater than 5.5 µM.
On to `CC(C)(C)OC(=O)NCCNCCNc1ccccc1`, for which the result was inactive.
Take `O=C1CSC(c2ccc(Cl)cc2)N1c1ccc(-n2c(-c3ccccc3)nc3ccccc3c2=O)cc1` (stereo not drawn): the EC50 was greater than 200 µM and the concentration for half-maximal inhibition (IC50) came out at 67.6 µM.
Turning to `C=C(CN(C)C)C(=O)c1ccc(Oc2ccccc2)cc1`, the EC50 is greater than 200 µM and the 50% inhibitory concentration (IC50) worked out at 3.47 µM.
Turning to `CC1(C)c2ccccc2C(O)C12CCC(=O)CC2` (stereo not drawn), the EC50 was greater than 200 µM and the concentration for half-maximal inhibition (IC50) is greater than 200 µM.
In the case of `COC(=O)C(NC(=O)c1ccccc1)C(c1c(O)cc(O)cc1O)P(=O)(OC)OC` (stereo not drawn), the EC50 is greater than 16.2 µM and the half-maximal inhibitory concentration (IC50) was greater than 16.2 µM.
For `Cc1cn(C2CC(O)C(CN=[N+]=[N-])O2)c(=O)[nH]c1=O` (stereo not drawn), the EC50 is greater than 933 µM and the half-inhibitory concentration (IC50) was greater than 933 µM.
`S=c1oc(CCCCCCCCc2nn(CNc3ccccc3)c(=S)o2)nn1CNc1ccccc1`: the EC50 is greater than 200 µM and the IC50 is greater than 200 µM.
Consider `COc1cccc(NC(=O)CC(=O)N2N=C(C)C(N=Nc3ccc(C(=O)O)cc3)C2=O)c1` (stereo not drawn), for which the EC50 is greater than 200 µM and the IC50 came out at 63.1 µM.
Consider `O=C1C=CC2O[C@H](c3ccccc3)[C@@H](O)C2O1` (stereo partly drawn), for which the EC50 is greater than 1070 µM and the half-inhibitory concentration (IC50) was 6.46 µM.
With `CC[C@]1(Cc2ccc(OC)c(OC)c2)C=[N+]([O-])O[C@H](OC2CCCCC2c2ccccc2)[C@@H]1OC(C)=O` (stereo partly drawn), the EC50 is greater than 200 µM and the IC50 stood at 30.2 µM.
For `O=C(O)c1ccc(CS(=O)(=O)c2ccccc2C(=O)O)c([N+](=O)[O-])c1` the same measures were greater than 692 µM and greater than 692 µM.
For `COc1ccc2c(c1)O[C@@H]1c3ccc(OC)cc3OC[C@H]21`, the result was inactive.

As usually defined, the EC50 is the concentration at which the effect is half-maximal. Usually IC50 stands for the midpoint of a concentration-inhibition curve. A higher IC50 goes with a need for much substance.
